Laboratory results reported in PubChem BioAssay AID330 (DTP/NCI, 2004).
“And” between values parts separate entries of the source, which are not always exact repeats. Equal entries are not always repeated. Toxic doses and inconclusive results are not listed. How the source made its calls: active means survival T/C of 150% or more; inactive means T/C below 125% in these data.

Test system: P388 leukemia ip, CD2F1 mice, survival T/C
Assay: NCI In Vivo Anticancer Drug Screen. Data for tumor model P388 Leukemia (intraperitoneal) in CD2F1 (CDF1) mice
Conditions: endpoint: median survival time, higher = longer survival
Procedure, shortened: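 Mice carrying the transplanted tumor received test compound or vehicle. Survival was recorded in each group, and the value is the treated-group measurement divided by that of the vehicle-treated control group.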

[1] = dose: 6.25 mg/kg/injection, schedule: Q01DX009 (ip), vehicle: saline with Tween-80
[2] = dose: 50.0 mg/kg/injection, schedule: Q01DX009 (ip), vehicle: saline with Tween-80
[3] = dose: 50.0 mg/kg/injection, schedule: Q01DX005 (ip), vehicle: Klucel (hydroxypropylcellulose) (HPC)
[4] = dose: 100.0 mg/kg/injection, schedule: Q01DX005 (ip), vehicle: Klucel (hydroxypropylcellulose) (HPC)
[5] = dose: 200.0 mg/kg/injection, schedule: Q01DX005 (ip), vehicle: Klucel (hydroxypropylcellulose) (HPC)
[6] = dose: 50.0 mg/kg/injection, schedule: Q01DX009 (ip), vehicle: saline
[7] = dose: 100.0 mg/kg/injection, schedule: Q01DX009 (ip), vehicle: saline
[8] = dose: 100.0 mg/kg/injection, schedule: Q04DX002 (ip), vehicle: saline with Tween-80
[9] = dose: 50.0 mg/kg/injection, schedule: Q01DX005 (ip), vehicle: saline with Tween-80
[10] = dose: 100.0 mg/kg/injection, schedule: Q01DX005 (ip), vehicle: saline with Tween-80
[11] = dose: 200.0 mg/kg/injection, schedule: Q01DX005 (ip), vehicle: saline with Tween-80

Measured: T/C

C(=C\CN1CCOCC1)/Cc1cccnc1
inactive: dose: 3.12 mg/kg/injection, schedule: Q01DX009 (ip), vehicle: saline with Tween-80 99 % of control and 100 % of control | [1] 100 % of control | dose: 12.5 mg/kg/injection, schedule: Q01DX009 (ip), vehicle: saline with Tween-80 100 % of control and 104 % of control | dose: 25.0 mg/kg/injection, schedule: Q01DX009 (ip), vehicle: saline with Tween-80 100 % of control (2×) and 102 % of control | [2] 103 % of control and 109 % of control

CN(c1ccccc1)P(C)(Cl)(c1ccccc1)c1ccccc1
inactive: dose: 1.56 mg/kg/injection, schedule: Q01DX009 (ip), vehicle: saline with Tween-80 101 % of control | dose: 3.13 mg/kg/injection, schedule: Q01DX009 (ip), vehicle: saline with Tween-80 109 % of control | [1] 118 % of control

CCCCCCN(CCCCCC)/C(N)=N/O
inactive: dose: 5.0 mg/kg/injection, schedule: Q01DX009 (ip), vehicle: saline with Tween-80 113 % of control | dose: 10.0 mg/kg/injection, schedule: Q01DX009 (ip), vehicle: saline with Tween-80 105 % of control | dose: 20.0 mg/kg/injection, schedule: Q01DX009 (ip), vehicle: saline with Tween-80 116 % of control

O=C(OCC(Cl)(Cl)Cl)N1[C@@H]2C=C[C@@H](N1C(=O)OCC(Cl)(Cl)Cl)[C@@]13CCCCC21O3 (stereo not given in full)
inactive: [3] 102 % of control | [4] 108 % of control | [5] 103 % of control

CC1=CCC2C(=O)N(c3cc(C)on3)C(=O)C2C1 (stereo not given)
inactive: dose: 60.0 mg/kg/injection, schedule: Q01DX005 (ip), vehicle: saline with Tween-80 97 % of control | dose: 120.0 mg/kg/injection, schedule: Q01DX005 (ip), vehicle: saline with Tween-80 100 % of control | dose: 240.0 mg/kg/injection, schedule: Q01DX005 (ip), vehicle: saline with Tween-80 90 % of control

C/C=C/C=C/C(O)CC(=O)N1OC2(C)c3ccccc3C1(C)c1ccccc12 (stereo not given)
inactive: dose: 100.0 mg/kg/injection, schedule: Q04DX003 (ip), vehicle: saline + alcohol 92 % of control | dose: 200.0 mg/kg/injection, schedule: Q04DX003 (ip), vehicle: saline + alcohol 92 % of control | dose: 400.0 mg/kg/injection, schedule: Q04DX003 (ip), vehicle: saline + alcohol 98 % of control

CC(=O)OCc1c(-c2ccccc2)nc2n1CCS2
inactive: dose: 12.5 mg/kg/injection, schedule: Q01DX001 (ip), vehicle: Klucel (hydroxypropylcellulose) (HPC) 101 % of control and 95 % of control | dose: 25.0 mg/kg/injection, schedule: Q01DX001 (ip), vehicle: Klucel (hydroxypropylcellulose) (HPC) 114 % of control and 106 % of control | dose: 50.0 mg/kg/injection, schedule: Q01DX001 (ip), vehicle: Klucel (hydroxypropylcellulose) (HPC) 108 % of control and 107 % of control | dose: 100.0 mg/kg/injection, schedule: Q01DX001 (ip), vehicle: Klucel (hydroxypropylcellulose) (HPC) 86 % of control

CN(C)CCSC(=O)N1c2ccccc2C(C)(C)c2ccccc21
inactive: [6] 102 % of control | [7] 103 % of control

CCCCN(CCCC)CCOc1ccc(/C(CC)=C(/CC)c2ccc(OCCN(CCCC)CCCC)cc2)cc1
inactive: dose: 12.5 mg/kg/injection, schedule: Q01DX005 (ip), vehicle: saline 100 % of control | dose: 25.0 mg/kg/injection, schedule: Q01DX005 (ip), vehicle: saline 87 % of control | dose: 50.0 mg/kg/injection, schedule: Q01DX005 (ip), vehicle: saline 100 % of control and 102 % of control

Cc1cc2c(c(=O)o1)C1=S(SC(c3ccccc3)=C1)S2 (stereo not given)
inactive: [8] 90 % of control | dose: 200.0 mg/kg/injection, schedule: Q04DX002 (ip), vehicle: saline with Tween-80 99 % of control | dose: 400.0 mg/kg/injection, schedule: Q04DX002 (ip), vehicle: saline with Tween-80 105 % of control

CCOC(=O)CNC(=O)NN(c1ccccc1)C1CCS(=O)(=O)C1 (stereo not given)
inactive: [9] 100 % of control | [10] 90 % of control | [11] 94 % of control

CCC1CN2CCc3cc(OC)c(OC)cc3C2CC1CCCl (stereo not given)
inactive: dose: 12.5 mg/kg/injection, schedule: Q01DX009 (ip), vehicle: Klucel (hydroxypropylcellulose) (HPC) 94 % of control | dose: 25.0 mg/kg/injection, schedule: Q01DX009 (ip), vehicle: Klucel (hydroxypropylcellulose) (HPC) 103 % of control | dose: 50.0 mg/kg/injection, schedule: Q01DX009 (ip), vehicle: Klucel (hydroxypropylcellulose) (HPC) 103 % of control and 106 % of control

O=c1c2ccccc2c(=O)c2c1ccc1[nH]c3c(ccc4c(=O)c5ccccc5c(=O)c43)[nH]c12
inactive: [9] 95 % of control | [10] 107 % of control | [11] 104 % of control

O=C1CCc2nc(-c3ccccc3)ncc21
inactive: dose: 100.0 mg/kg/injection, schedule: Q04DX003 (ip), vehicle: saline with Tween-80 99 % of control | dose: 200.0 mg/kg/injection, schedule: Q04DX003 (ip), vehicle: saline with Tween-80 89 % of control | dose: 400.0 mg/kg/injection, schedule: Q04DX003 (ip), vehicle: saline with Tween-80 88 % of control

CN(/N=C(C#N)/C(N)=N/NC(=O)c1ccccc1)c1ccccc1
inactive: dose: 25.0 mg/kg/injection, schedule: Q04DX002 (ip), vehicle: saline with Tween-80 103 % of control | dose: 50.0 mg/kg/injection, schedule: Q04DX002 (ip), vehicle: saline with Tween-80 96 % of control | [8] 96 % of control

Nc1nc(-c2ccc(F)cc2)cc(-c2cc(-c3ccc(F)cc3)nc(N)n2)n1
inactive: dose: 60.0 mg/kg/injection, schedule: Q01DX005 (ip), vehicle: saline 100 % of control | dose: 120.0 mg/kg/injection, schedule: Q01DX005 (ip), vehicle: saline 105 % of control | dose: 240.0 mg/kg/injection, schedule: Q01DX005 (ip), vehicle: saline 102 % of control

[N-]=[N+]=NC1(N=[N+]=[N-])C(=O)c2cccc3c2N(CCC3)C1=O (stereo not given)
inactive: [3] 92 % of control | [4] 114 % of control | [5] 88 % of control

O=C1c2ccccc2C(=O)N1CCC[P+](c1ccccc1)(c1ccccc1)c1ccccc1
inactive: dose: 1.56 mg/kg/injection, schedule: Q01DX009 (ip), vehicle: saline 122 % of control

O=C(Oc1ccc[nH]c1=O)C12CC3CC(CC(C3)C1)C2
inactive: [6] 101 % of control | [7] 100 % of control | dose: 200.0 mg/kg/injection, schedule: Q01DX009 (ip), vehicle: saline 98 % of control and 94 % of control | dose: 400.0 mg/kg/injection, schedule: Q01DX009 (ip), vehicle: saline 99 % of control and 93 % of control

CCOC(=O)NC(NC(=O)OCC)c1cccc(F)c1
inactive: dose: 100.0 mg/kg/injection, schedule: Q04DX003 (ip), vehicle: saline 99 % of control | dose: 200.0 mg/kg/injection, schedule: Q04DX003 (ip), vehicle: saline 99 % of control | dose: 400.0 mg/kg/injection, schedule: Q04DX003 (ip), vehicle: saline 93 % of control

CC(C)OC(=S)NC(=O)c1ccccc1
inactive: [2] 109 % of control | dose: 100.0 mg/kg/injection, schedule: Q01DX009 (ip), vehicle: saline with Tween-80 100 % of control | dose: 200.0 mg/kg/injection, schedule: Q01DX009 (ip), vehicle: saline with Tween-80 103 % of control | dose: 400.0 mg/kg/injection, schedule: Q01DX009 (ip), vehicle: saline with Tween-80 108 % of control
